From ChEMBL document CHEMBL4251652, “Chameleon-like behavior of indolylpiperidines in complex with cholinesterases targets: Potent butyrylcholinesterase inhibitors” (Eur J Med Chem, 2018)
Calls of active or inactive are those of the source. No cut-off for these calls is given here.

What was measured:
in vitro [1] = conditions: PAMPA
Description: Permeability of the compound after 2.5 hrs by PAMPA

in vitro [2] = conditions: PAMPA; remark: listed apart in the source
Description: Permeability of the compound at 500 uM after 8 hrs by PAMPA

Acetylcholinesterase [3] = biological target: T1, Acetylcholinesterase (Homo sapiens, UniProt P22303); assay: Inhibition of recombinant human AChE using acetylthiocholine iodide as substrate pretreated for 5 mins followed by substrate addition measured for 5 mins by Ellman's method
T1 sequence (P22303 whole entry): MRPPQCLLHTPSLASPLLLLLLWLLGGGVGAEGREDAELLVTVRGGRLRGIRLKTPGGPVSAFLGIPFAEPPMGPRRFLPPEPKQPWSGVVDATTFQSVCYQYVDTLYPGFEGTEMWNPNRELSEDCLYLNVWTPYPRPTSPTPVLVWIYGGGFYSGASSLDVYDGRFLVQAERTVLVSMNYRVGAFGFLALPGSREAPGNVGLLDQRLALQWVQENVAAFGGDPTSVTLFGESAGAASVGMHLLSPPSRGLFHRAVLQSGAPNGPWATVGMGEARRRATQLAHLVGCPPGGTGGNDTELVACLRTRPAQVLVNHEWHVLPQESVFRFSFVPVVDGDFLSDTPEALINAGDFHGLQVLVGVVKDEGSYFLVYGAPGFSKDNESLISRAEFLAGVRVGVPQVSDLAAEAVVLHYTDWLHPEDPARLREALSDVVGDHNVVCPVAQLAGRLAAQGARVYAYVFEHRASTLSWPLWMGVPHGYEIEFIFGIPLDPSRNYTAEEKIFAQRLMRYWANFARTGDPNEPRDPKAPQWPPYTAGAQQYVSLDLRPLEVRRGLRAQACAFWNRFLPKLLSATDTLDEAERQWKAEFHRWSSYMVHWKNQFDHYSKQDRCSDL

Cholinesterase [4] = biological target: T2, Cholinesterase (Homo sapiens, UniProt P06276); assay: Inhibition of recombinant human serum BuChE using butyrylthiocholine iodide as substrate pretreated for 5 mins followed by substrate addition measured for 5 mins by Ellman's method
T2 sequence (P06276 whole entry): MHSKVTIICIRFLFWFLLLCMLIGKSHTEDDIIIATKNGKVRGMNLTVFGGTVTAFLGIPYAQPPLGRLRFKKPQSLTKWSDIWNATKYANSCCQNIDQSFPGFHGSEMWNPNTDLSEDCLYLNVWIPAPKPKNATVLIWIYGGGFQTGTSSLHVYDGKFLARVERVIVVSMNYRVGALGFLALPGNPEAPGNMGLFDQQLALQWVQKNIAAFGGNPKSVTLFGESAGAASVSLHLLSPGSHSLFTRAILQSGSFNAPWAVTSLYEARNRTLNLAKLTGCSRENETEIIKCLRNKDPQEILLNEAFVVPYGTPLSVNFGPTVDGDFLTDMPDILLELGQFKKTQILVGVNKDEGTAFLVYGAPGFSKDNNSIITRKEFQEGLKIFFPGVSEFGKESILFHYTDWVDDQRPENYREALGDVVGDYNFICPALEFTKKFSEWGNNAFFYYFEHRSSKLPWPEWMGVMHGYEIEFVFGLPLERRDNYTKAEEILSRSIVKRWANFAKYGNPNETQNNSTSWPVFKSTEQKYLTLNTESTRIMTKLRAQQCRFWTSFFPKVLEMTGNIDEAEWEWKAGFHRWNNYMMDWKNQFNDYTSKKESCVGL

in vitro [5] = conditions: PAMPA; remark: listed apart in the source
Description: Permeability of the compound by PAMPA

[6] = biological target: Acetylcholinesterase (Electrophorus electricus) (UniProt O42275); assay: Binding affinity to electric eel AChE at 260 uM by trNOESY NMR method
Sequence of Acetylcholinesterase (Electrophorus electricus) (O42275 24-633 limits assumed): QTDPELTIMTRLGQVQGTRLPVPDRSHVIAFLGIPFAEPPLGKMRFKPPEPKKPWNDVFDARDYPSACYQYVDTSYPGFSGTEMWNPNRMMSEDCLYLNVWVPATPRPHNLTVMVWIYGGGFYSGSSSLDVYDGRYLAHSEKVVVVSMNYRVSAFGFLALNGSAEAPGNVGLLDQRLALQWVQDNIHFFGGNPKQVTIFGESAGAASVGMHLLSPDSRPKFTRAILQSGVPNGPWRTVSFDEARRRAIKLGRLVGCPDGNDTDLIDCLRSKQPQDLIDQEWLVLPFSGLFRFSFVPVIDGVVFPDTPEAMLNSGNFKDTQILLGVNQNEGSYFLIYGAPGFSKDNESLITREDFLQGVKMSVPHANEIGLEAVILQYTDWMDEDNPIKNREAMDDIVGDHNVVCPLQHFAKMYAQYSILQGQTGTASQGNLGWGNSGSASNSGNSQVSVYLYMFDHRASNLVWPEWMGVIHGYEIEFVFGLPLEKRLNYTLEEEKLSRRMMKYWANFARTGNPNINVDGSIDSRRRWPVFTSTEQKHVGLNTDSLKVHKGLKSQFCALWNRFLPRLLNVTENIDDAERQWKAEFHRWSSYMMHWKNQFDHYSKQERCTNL

Cholinesterase [7] = biological target: T2, Cholinesterase; assay: Mixed-type inhibition of recombinant human serum BuChE at 0.5 to 2 nM using varying levels of butyrylthiocholine iodide as substrate pretreated for 5 mins followed by substrate addition measured for 5 mins by Lineweaver-Burk plot analysis
Acetylcholinesterase [8] = biological target: T1, Acetylcholinesterase; assay: Competitive inhibition of recombinant human AChE at 1 to 10 uM using varying levels of acetylthiocholine iodide as substrate pretreated for 5 mins followed by substrate addition measured for 5 mins by Lineweaver-Burk plot analysis
[9] = biological target: Acetylcholinesterase (Electrophorus electricus) (UniProt O42275); assay: Binding affinity to electric eel AChE at 20-fold excess by STD-NMR menthod
[10] = biological target: Cholinesterase (Equus caballus) (UniProt P81908); assay: Binding affinity to equine serum BuChE at 176 uM by trNOESY NMR method
Sequence of Cholinesterase (Equus caballus) (P81908 whole entry): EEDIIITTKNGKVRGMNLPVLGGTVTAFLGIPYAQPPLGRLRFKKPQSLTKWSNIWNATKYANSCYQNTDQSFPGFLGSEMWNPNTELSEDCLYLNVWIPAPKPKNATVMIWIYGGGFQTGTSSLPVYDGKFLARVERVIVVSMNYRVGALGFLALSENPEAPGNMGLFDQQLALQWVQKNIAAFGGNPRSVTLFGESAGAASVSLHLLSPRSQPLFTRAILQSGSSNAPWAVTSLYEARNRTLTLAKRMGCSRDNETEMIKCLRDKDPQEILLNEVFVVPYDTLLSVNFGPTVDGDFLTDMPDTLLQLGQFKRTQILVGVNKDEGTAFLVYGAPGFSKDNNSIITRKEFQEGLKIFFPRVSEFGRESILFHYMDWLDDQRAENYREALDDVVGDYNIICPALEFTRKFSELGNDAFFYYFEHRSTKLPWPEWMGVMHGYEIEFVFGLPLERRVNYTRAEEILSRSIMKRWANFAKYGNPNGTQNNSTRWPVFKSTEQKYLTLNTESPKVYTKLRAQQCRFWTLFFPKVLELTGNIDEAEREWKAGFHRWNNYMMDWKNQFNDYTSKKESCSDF

[11] = biological target: Cholinesterase (Equus caballus) (UniProt P81908); assay: Binding affinity to equine serum BuChE at 20-fold excess by STD-NMR menthod
SH-SY5Y = assay: Cytotoxicity against human SH-SY5Y cells assessed as cell death up to […] after 24 hrs by LDH release assay; format: cell-based
Rattus norvegicus [12] = assay: In vivo inhibition of BuChE in Wistar rat at 80 mg/kg, ip measured after 60 mins by Ellman's method relative to control; format: functional; conditions: 1 h
Rattus norvegicus [13] = assay: In vivo inhibition of BuChE in Wistar rat administered ip measured after 60 mins by Ellman's method; format: functional, organism-based

SMILES: CN1C(C(=O)Nc2ccccn2)=C(O)c2ccccc2S1(=O)=O [PIROXICAM]
- Papp at 2.5 h (in vitro [1]): 0.1 ×10⁻⁶ cm/s

SMILES: Cn1cc(CC(=O)NCCC2CCN(Cc3ccccc3)CC2)c2ccccc21
- Papp at 8 h, 500 µM (in vitro [2]): 5.5 ×10⁻⁶ cm/s
- Papp at 2.5 h (in vitro [1]): 7.3 ×10⁻⁶ cm/s
- IC50 (Acetylcholinesterase [3]): 1420 nM
- IC50 (Cholinesterase [4]): 0.25 nM

SMILES: Cn1cc(C(=O)NCCC2CCN(Cc3ccccc3)CC2)c2ccccc21
- Papp at 8 h, 500 µM (in vitro [2]): 4.6 ×10⁻⁶ cm/s
- Papp at 2.5 h (in vitro [1]): 4.8 ×10⁻⁶ cm/s
- IC50 (Acetylcholinesterase [3]): 6110 nM
- IC50 (Cholinesterase [4]): 670 nM

SMILES: Cc1[nH]c2ccccc2c1CC(=O)NCCC1CCN(Cc2ccccc2)CC1
- Papp at 8 h, 500 µM (in vitro [2]): 0.7 ×10⁻⁶ cm/s
- Papp at 2.5 h (in vitro [1]): 2.3 ×10⁻⁶ cm/s
- IC50 (Acetylcholinesterase [3]): 7270 nM
- IC50 (Cholinesterase [4]): 1.09 nM

SMILES: CO/N=C(\C(=O)N[C@@H]1C(=O)N2C(C(=O)O)=C(CSc3nc(=O)c(=O)[nH]n3C)CS[C@H]12)c1csc(N)n1 [CEFTRIAXONE]
- Papp at 8 h, 500 µM (in vitro [2]): 0.1 ×10⁻⁶ cm/s

SMILES: NC(=O)N1c2ccccc2C=Cc2ccccc21 [CARBAMAZEPINE]
- Papp at 8 h, 500 µM (in vitro [2]): 11.2 ×10⁻⁶ cm/s
- Papp (in vitro [5]): 11.3 ×10⁻⁶ cm/s

SMILES: O=C(CCCc1c[nH]c2ccccc12)NCCC1CCN(Cc2ccccc2)CC1
- Papp at 8 h, 500 µM (in vitro [2]): 0.1 ×10⁻⁶ cm/s
- Papp at 2.5 h (in vitro [1]): 3.9 ×10⁻⁶ cm/s
- IC50 (Acetylcholinesterase [3]): 1260 nM
- IC50 (Cholinesterase [4]): 12 nM

SMILES: O=c1ccc2ccccc2o1 [COUMARIN]
- Papp at 8 h, 500 µM (in vitro [2]): 19.3 ×10⁻⁶ cm/s
- Papp (in vitro [5]): 22.1 ×10⁻⁶ cm/s

SMILES: CNCCCN1c2ccccc2CCc2ccccc21 [DESIPRAMINE]
- Papp at 2.5 h (in vitro [1]): 11.4 ×10⁻⁶ cm/s

SMILES: Nc1nc2c(ncn2COCCO)c(=O)[nH]1 [ACYCLOVIR]
- Papp at 8 h, 500 µM (in vitro [2]): 0.1 ×10⁻⁶ cm/s

SMILES: Cn1c(=O)c2c(ncn2C)n(C)c1=O [CAFFEINE]
- Papp at 2.5 h (in vitro [1]): 0.1 ×10⁻⁶ cm/s

SMILES: O=C(CCc1c[nH]c2ccccc12)NCCC1CCN(Cc2ccccc2)CC1
- Papp at 8 h, 500 µM (in vitro [2]): 0.7 ×10⁻⁶ cm/s
- Papp at 2.5 h (in vitro [1]): 2.2 ×10⁻⁶ cm/s
- IC50 (Acetylcholinesterase [3]): 5950 nM
- IC50 (Cholinesterase [4]): 0.89 nM

SMILES: O=C(Cc1c[nH]c2ccccc12)NCCC1CCN(Cc2ccccc2)CC1
- Activity [6]: Active
- Papp at 8 h, 500 µM (in vitro [2]): 0.1 ×10⁻⁶ cm/s
- inhibition (Cholinesterase [7]): Active
- inhibition (Acetylcholinesterase [8]): Active
- Papp at 2.5 h (in vitro [1]): 2.4 ×10⁻⁶ cm/s
- Activity [9]: Active
- IC50 (Acetylcholinesterase [3]): 3550 nM
- Activity [10]: Active
- IC50 (Cholinesterase [4]): 0.87 nM
- Activity [11]: Active

SMILES: O=C(Cc1c[nH]c2ccc(Br)cc12)NCCC1CCN(Cc2ccccc2)CC1
- Papp at 8 h, 500 µM (in vitro [2]): 0.5 ×10⁻⁶ cm/s
- Papp at 2.5 h (in vitro [1]): 5.8 ×10⁻⁶ cm/s
- IC50 (Acetylcholinesterase [3]): 1410 nM
- Activity (SH-SY5Y): Non-Toxic
- inhibition in vivo at 80 mg/kg (Rattus norvegicus [12]): 15%
- IC50 (Cholinesterase [4]): 0.68 nM
- inhibition (Rattus norvegicus [13]): Dose-dependent effect

SMILES: CN(C)CCCN1c2ccccc2Sc2ccccc21 [PROMAZINE]
- Papp at 2.5 h (in vitro [1]): 11.8 ×10⁻⁶ cm/s
